Legend:
[1] = tested on: ATRX IFF NB cells; experiment: Proliferation (Incucyte, percent confluence normalized to DMSO) of ATRX IFF NB cells; assay type: cell-based, human; details: proliferation IC50 curves, day 12 (FIG. 11a)
From the text: GAPDH used as a loading control. […] Percent confluence normalized to DMSO for each condition and plotted at day 12. Values normalized mean n±SD (n=3). Statistical significance assessed using student's unpaired t-test with each cell line compared to DMSO (* indicates p<0.05). […] Percent AV positive cells plotted, values are mean n±SD (n=3). Statistical significance assessed using student's unpaired t-test with each cell line compared to DMSO (* indicates p<0.05). (d) Tumor volume measurements of CHLA-90 cells subcutaneously injected into immunocompromised mice. Mice were treated with vehicle or UNC1999 at 300 mg/kg of body weight for 25 days, values mean n±SEM (n=9). Statistical significance assessed using student's unpaired t-test compared to vehicle (* indicates p<0.001). […]
Proliferation evaluated using the […] […] IC50 for each cell line calculated in Prism. […] Statistical significance assessed using student's unpaired t-test with each cell line compared to DMSO (* indicates p<0.05). […] Proliferation assessed in the same manner as (a). Statistical significance assessed using student's unpaired t-test with each cell line compared to DMSO (* indicates p<0.05). […] AV staining assessed in the same manner as (b). […] Proliferation assessed in the same manner as (a). […] AV staining assessed in the same manner as (b).
GAPDH used as a loading control. […] Proliferation evaluated using the Incucyte™ Life-Cell Imaging System. […]

[2] = tested on: CHLA-90 xenografts; experiment: CHLA-90 xenografts in immunocompromised mice; assay type: in vivo; details: 300 mg/kg of body weight, 25 days
From the text: GAPDH used as a loading control. […] Percent confluence normalized to DMSO for each condition and plotted at day 12. Values normalized mean n±SD (n=3). Statistical significance assessed using student's unpaired t-test with each cell line compared to DMSO (* indicates p<0.05). […] Percent AV positive cells plotted, values are mean n±SD (n=3). Statistical significance assessed using student's unpaired t-test with each cell line compared to DMSO (* indicates p<0.05). (d) Tumor volume measurements of CHLA-90 cells subcutaneously injected into immunocompromised mice. Mice were treated with vehicle or UNC1999 at 300 mg/kg of body weight for 25 days, values mean n±SEM (n=9). Statistical significance assessed using student's unpaired t-test compared to vehicle (* indicates p<0.001). (e) Tumor weight measurement from xenografts collected in (d), values mean n±SEM (n=9). Images of excised tumors underneath (* indicates p<0.001). (f) Immunoblots for H3K27me3 from acid extracted histones derived from vehicle and treated xenografts. H4 and histones used as loading controls.

| SMILES | sensitivity of ATRX IFF NB cells compared to other NB subtypes [1] | tumor growth and volume compared to vehicle-treated tumors [2] |
| --- | --- | --- |
| CCN(c1cc(-c2ccc(CN3CCOCC3)cc2)cc(C(=O)NCc2c(C)cc(C)[nH]c2=O)c1C)C1CCOCC1 [EPZ-6438, Tazemetostat] | 5-10 fold | – |
| CCCc1cc(C)[nH]c(=O)c1CNC(=O)c1cc(-c2ccc(N3CCN(C(C)C)CC3)nc2)cc2c1cnn2C(C)C [UNC1999] | – | significant reduction |
